Reference: USRE37410E, “Controlled local delivery of chemotherapeutic agents for treating solid tumors” (priority 1999, dated 2001)
Several values for one entry are separate records, joined by “and”; a condition that tells them apart may be missing. Equal values may be shown once. Read-outs that look alike come from different tables or passages of the source.

Columns and labels:
[1] = cited from earlier work
[2] = test system: 9L; assay: Intracranial local drug delivery by polymer implant in rat glioma model, median survival (Table 1 summary); conditions: in vivo
[3] = test system: F98, 9L, U87, U373, JH1 cell lines; assay: In vitro efficacy of camptothecin on several cell lines (clonogenic assay); format: cell-based; conditions: 168 h; rat and established human cell lines, continuous exposure; read-out: LD90 after continuous exposure
Source text: (§1) Tumor cell lines. […] The F98 glioma cells were provided by Dr. Joseph Goodman, Department of Neurosurgery, Ohio State University, Columbus, Ohio. The human glioma cell lines U87 and U373 were provided by Dr. O. Michael Colvin, Johns Hopkins University School of Medicine, Baltimore, Md. JH1 is a cell line established from a biopsy specimen from a patient with a pathologically confirmed glioblastoma multiform.
Cell culture of freshly biopsied gliomas. Biopsy samples were obtained from the operating room and transported in sterile specimen containers. Specimens were filtered through a 230 μm mesh collector screen (Bellco Glass, Inc., Vineland, N.J.) with use of a glass pestle. The specimen was then centrifuged at 1000 rpm for 10 minutes. The supernatant fraction was discarded and the cell pellet was resuspended in a 1 ml of minimum essential medium (Gibco BRL, Grand Island, N.Y.) with 10% fetal bovine serum, 0.5% L-glutamine, penicillin (base; 80.5 units/ml), and streptomycin (80.5 μg/ml). […] Sensitivity was assessed by the clonogenic assay below, beginning with the second passage.
Clonogenic assay. […] Colonies containing more than 50 cells were identified and counted. […] Survival was calculated as the number of colonies formed by the treated cells relative to the number of colonies formed by the untreated cells.

[4] = test system: L1210; conditions: in vitro; cited from earlier work
[5] = test system: U87; assay: Clonogenic assay, camptothecin; format: cell-based, human
Protocol: as §1
(§2) Clonogenic assay. The sensitivity of each glioma cell line was tested in a clonogenic assay. At confluence, the cells were trypsinized and plated at 400 cells per 60 mm well. After 24 hours, fresh medium containing camptothecin at various concentrations was added. For brief exposure experiments, the camptothecin was removed and replaced with fresh medium after 1 hour; for continuous exposure, medium was left in place for 7 days. At 7 days, all plates were fixed and stained with coomassie brilliant blue (Bio Rad, Richmond, Calif.). Colonies containing more than 50 cells were identified and counted. Treatments were performed in triplicate. Survival was calculated as the number of colonies formed by the treated cells relative to the number of colonies formed by the untreated cells.

[6] = test system: melanoma and advanced gastrointestinal carcinoma; conditions: human, in vivo; cited from earlier work
[7] = test system: JH1; assay: Clonogenic assay, camptothecin; format: cell-based; conditions: Homo sapiens; for IC100: read-out: concentration for total cell kill
Source text: as §1
Cell culture of freshly biopsied gliomas. Biopsy samples were obtained from the operating room and transported in sterile specimen containers. Specimens were filtered through a 230 μm mesh collector screen (Bellco Glass, Inc., Vineland, N.J.) with use of a glass pestle. The specimen was then centrifuged at 1000 rpm for 10 minutes. The supernatant fraction was discarded and the cell pellet was resuspended in a 1 ml of minimum essential medium (Gibco BRL, Grand Island, N.Y.) with 10% fetal bovine serum, 0.5% L-glutamine, penicillin (base; 80.5 units/ml), and streptomycin (80.5 μg/ml). The suspension was passed through a 25 gauge needle, after which it was recentrifuged at 1000 rpm for 5 minutes. The supernatant fraction was discarded and the pellet was resuspended in 5 ml of medium. This suspension was plated onto T75 culture flasks at various dilutions and incubated at 37° C. The medium was changed approximately every 3 days. When the initial culture reached confluence, the cells were trypsinized and passaged. Sensitivity was assessed by the clonogenic assay below, beginning with the second passage.
as §2

[8] = sodium salt formulation; cited from earlier work
[9] = test system: rat Walker 256 carcinosarcoma; conditions: in vitro; cited from earlier work
[10] = test system: U373; assay: Clonogenic assay, camptothecin; format: cell-based; conditions: Homo sapiens, U373 MG
Protocol: as §1, §2

[11] = test system: 9L; assay: Clonogenic assay, camptothecin; format: cell-based; conditions: Rattus norvegicus
Protocol: as §1, §2

[12] = test system: F98; assay: Clonogenic assay, camptothecin; format: cell-based; conditions: Rattus norvegicus
Protocol: as §1, §2

[13] = test system: topoisomerase I; conditions: cited from earlier work
[14] = Intracranial local drug delivery by polymer implant in rat glioma model, P98 cells injected (Table 1 summary); format: in vivo; conditions: p(FAD:SA) 5% load
Source text: Table 1 is a summary of studies on intracranial local drug delivery in rat glioma models, as described in the following examples.

[15] = in vivo; cited from earlier work
[16] = test system: glioma lines; conditions: in vitro; cited from earlier work
[17] = 1 h, read-out: LD90 1 Hour Exposure
[18] = 168 h, continuous exposure, 7 days, read-out: LD90 Continuous Exposure

For `O=NN(CCCl)C(=O)NCCCl` [BCNU, 1,3-bis(2-chloroethyl)-1-nitrosourea], which “radius from implant within which BCNU is detectable” value ([1]; 21 days after implantation) is on record?
Its value is no more than 3 mm.

What about the “radius from implant within which BCNU is detectable” value ([1]; Day 7) of the same compound?
The value was no more than 40 mm.

What about the concentration ([1]; PCPP-SA (20:80), initially, read-out: average concentration in brain) of the same compound?
Its concentration is 8000 µM.

And the “amount of brain exposed to BCNU” value ([1]; over time)?
The value was “decrease after three days”.

What about the “% increase survival” value [2] of the same compound?
The value was 634% and 437%.

What about the “Median survival in days, Rx group” value [2] of the same compound?
The value was 80 and 62.3.

Which IC90 [3] does the source give for `CC[C@@]1(O)C(=O)OCc2c1cc1n(c2=O)Cc2cc3ccccc3nc2-1` [camptothecin, 4-ethyl-4-hydroxy-1H-pyrano[3',4':6,7]indolizino[1,2-b] quinoline-3,14(4H,12H)-dione] here?
Its IC90 is no more than 100 nM.

And the cytotoxic anti-tumor activity [4]?
The cytotoxic anti-tumor activity was “strong cytotoxic anti-tumor activity”.

What about the IC90 ([5]; 1 hour exposure, 60 min, read-out: LD90 1 Hour Exposure) of the same compound?
The IC90 was 1400 nM.

What about the IC90 ([5]; Homo sapiens, U-87 MG, 1 h, 1 hour exposure, read-out: LD90 1 Hour Exposure) of the same compound?
The IC90 was 1200 nM.

And the IC90 ([5]; Homo sapiens, U-87 MG, 168 h, continuous exposure, 7 days, read-out: LD90 Continuous Exposure)?
The IC90 was 100 nM.

And the systemic toxicity [6]?
Its systemic toxicity is “unexpectedly severe systemic toxicity”.

And the tumoral responses [6]?
The tumoral responses was “poor tumoral responses”.

And the IC90 [7, 17]?
Its IC90 is 100 nM.

What about the IC90 [7, 18] of the same compound?
The IC90 was 26 nM.

And the IC100 ([7]; 1-hour exposure)?
Its IC100 is 0.14 µM.

And the IC100 ([7]; continuous exposure)?
The IC100 was 0.03 µM.

What about the protein binding [8] of the same compound?
Its protein binding is “strongly protein-bound”.

And the cytotoxic anti-tumor activity [9]?
Its cytotoxic anti-tumor activity is “strong cytotoxic anti-tumor activity”.

What about the IC90 [10, 17] of the same compound?
The IC90 was 300 nM.

What about the IC90 [10, 18] of the same compound?
Its IC90 is 26 nM.

And the IC90 [11, 17]?
The IC90 was 1400 nM.

What about the IC90 [11, 18] of the same compound?
Its IC90 is 100 nM.

What about the IC90 ([12]; F98, 1 h, read-out: LD90 1 Hour Exposure) of the same compound?
The IC90 was 1400 nM.

What about the IC90 ([12]; F98, 168 h, continuous exposure, 7 days, read-out: LD90 Continuous Exposure) of the same compound?
Its IC90 is 100 nM.

What about the “inhibition of topoisomerase I” value [13] of the same compound?
Its value is “irreversibly inhibiting”.

Which “% increase survival” value ([14]; Rx day 5) does the source give for `N.N.O=C([O-])C1(C(=O)[O-])CCC1.[Pt+2]` [Carboplatin] here?
The value was 225%.

What about the “Median survival in days, Rx group” value ([14]; Rx day 5, 1 × 10^5 cells injected, controls 16, n = 18) of the same compound?
Its value is 52 days.

With `CN(C)c1ccc(O)c2c1C[C@H]1C[C@H]3[C@H](N(C)C)C(O)=C(C(N)=O)C(=O)[C@@]3(O)C(O)=C1C2=O` [minocycline] as the compound, how does the “% increase survival > no Rx” value [2] read?
The value was 330%.

And the “% increase survival > ip BCNU” value ([2]; ip)?
Its value is 93%.

Which results are given for `COc1cccc2c1C(=O)c1c(O)c3c(c(O)c1C2=O)C[C@@](O)(C(=O)CO)C[C@@H]3O[C@H]1C[C@H](N)[C@H](O)[C@H](C)O1` [Adriamycin]?
cardiac toxicity [15]: significant dose related cardiac toxicity; sensitivity of gliomas [16]: highly sensitive
